# Data: US10167262B2, “Herbicidal substituted 3-arylpyrazoles” (FMC CORPORATION, priority 2014, dated 2019)
# Like-named read-outs stand apart in the source and are kept apart here.
# Tests used:
# Experiment in all cases: Test C pre-/postemergence greenhouse test, plant response rating 0-100
# Assay type in all cases: in vivo
# [1] = system: blackgrass (Alopecurus myosuroides); conditions: Alopecurus myosuroides; for pest or weed control at 250 g/ha: 250 g ai/ha
# Procedure, shortened: (§1)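 Scores run from 0, no effect, to 100, complete control, assigned by eye after treated plants and controls spent 13 to 15 days in a greenhouse. Soil-applied treatment went onto freshly sown seed in loam and sand; foliar treatment hit seedlings at the 1- to 4-leaf stage.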
# [2] = system: winter wheat (Triticum aestivum); conditions: Triticum aestivum; for plant injury at 62 g/ha: 62 g ai/ha; for plant injury at 125 g/ha: 125 g ai/ha; for plant injury at 250 g/ha: 250 g ai/ha
# Procedure, shortened: as §1
# [3] = system: velvetleaf (Abutilon theophrasti); conditions: Abutilon theophrasti; for pest or weed control at 62 g/ha: 62 g ai/ha; for pest or weed control at 125 g/ha: 125 g ai/ha; for pest or weed control at 250 g/ha: 250 g ai/ha
# Procedure, shortened: as §1
# [4] = system: large (Lg) crabgrass (Digitaria sanguinalis); conditions: Digitaria sanguinalis; for pest or weed control at 62 g/ha: 62 g ai/ha; for pest or weed control at 125 g/ha: 125 g ai/ha; for pest or weed control at 250 g/ha: 250 g ai/ha
# Procedure, shortened: as §1
# [5] = system: pigweed (Amaranthus retroflexus); conditions: Amaranthus retroflexus; for pest or weed control at 62 g/ha: 62 g ai/ha; for pest or weed control at 250 g/ha: 250 g ai/ha
# Procedure, shortened: as §1
# [6] = system: Italian ryegrass (Lolium multiflorum); conditions: Lolium multiflorum; for pest or weed control at 62 g/ha: 62 g ai/ha; for pest or weed control at 125 g/ha: 125 g ai/ha; for pest or weed control at 250 g/ha: 250 g ai/ha
# Procedure, shortened: as §1
# [7] = system: giant foxtail (Setaria faberii); conditions: Setaria faberi; for pest or weed control at 62 g/ha: 62 g ai/ha; for pest or weed control at 125 g/ha: 125 g ai/ha; for pest or weed control at 250 g/ha: 250 g ai/ha
# Procedure, shortened: as §1
# [8] = post-emergence, Postemergence, scale 0 to 100
# [9] = post-emergence, Postemergence, read-out: Plant response rating (0 to 100), Wheat
# [10] = pre-emergence, Preemergence, read-out: Plant response rating, Wheat
# [11] = pre-emergence, Preemergence, 500 g ai/ha
# [12] = post-emergence, Postemergence, read-out: Plant response rating (0 to 100), Velvetleaf
# [13] = pre-emergence, Preemergence, read-out: Plant response rating, Velvetleaf
# [14] = post-emergence, Postemergence, read-out: Plant response rating (0 to 100), Crabgrass, Large
# [15] = pre-emergence, Preemergence, read-out: Plant response rating, Crabgrass, Large
# [16] = post-emergence, Postemergence, read-out: Plant response rating (0 to 100), Ryegrass, Italian
# [17] = pre-emergence, Preemergence, read-out: Plant response rating, Ryegrass, Italian
# [18] = post-emergence, Postemergence, read-out: Plant response rating (0 to 100), Foxtail, Giant
# [19] = pre-emergence, Preemergence, read-out: Plant response rating, Foxtail, Giant
smiles,measurement,setting,value
"Cn1cc(C(=O)c2ccccc2)c(-c2cc(Cl)cc(Cl)c2)n1 [Compound 54, [3-(3,5-dichlorophenyl)-1-methyl-1H-pyrazol-4-yl]phenylmethanone]",pest or weed control at 250 g/ha,[1]; [8],0%
same,pest or weed control at 62 g/ha,"[1]; pre-emergence, Preemergence, 62 g ai/ha, read-out: Plant response rating, Blackgrass",0%
same,pest or weed control at 125 g/ha,"[1]; pre-emergence, Preemergence, 125 g ai/ha, read-out: Plant response rating, Blackgrass",0%
same,pest or weed control at 250 g/ha,"[1]; pre-emergence, Preemergence",0%
same,plant injury at 62 g/ha,[2]; [9],0%
same,plant injury at 125 g/ha,[2]; [9],0%
same,plant injury at 250 g/ha,[2]; [8],0%
same,plant injury at 62 g/ha,[2]; [10],0%
same,plant injury at 125 g/ha,[2]; [10],0%
same,plant injury at 250 g/ha,"[2]; pre-emergence, Preemergence",0%
same,plant injury at 500 g/ha,[2]; [11],0%
same,pest or weed control at 62 g/ha,[3]; [12],80%
same,pest or weed control at 125 g/ha,[3]; [12],85%
same,pest or weed control at 250 g/ha,[3]; [8],100%
same,pest or weed control at 62 g/ha,[3]; [13],45%
same,pest or weed control at 125 g/ha,[3]; [13],55%
same,pest or weed control at 250 g/ha,"[3]; pre-emergence, Preemergence",60%
same,pest or weed control at 500 g/ha,[3]; [11],80%
same,pest or weed control at 31 g/ha,"[4]; post-emergence, Postemergence, 31 g ai/ha, read-out: Plant response rating (0 to 100), Crabgrass, Large",0%
same,pest or weed control at 62 g/ha,[4]; [14],0%
same,pest or weed control at 125 g/ha,[4]; [14],0%
same,pest or weed control at 250 g/ha,[4]; [8],0%
same,pest or weed control at 62 g/ha,[4]; [15],0%
same,pest or weed control at 125 g/ha,[4]; [15],0%
same,pest or weed control at 250 g/ha,"[4]; pre-emergence, Preemergence",0%
same,pest or weed control at 500 g/ha,[4]; [11],30%
same,pest or weed control at 62 g/ha,"[5]; post-emergence, Postemergence, read-out: Plant response rating (0 to 100), Pigweed",98%
same,pest or weed control at 125 g/ha,"[5]; post-emergence, Postemergence, 125 g ai/ha, read-out: Plant response rating (0 to 100), Pigweed",100%
same,pest or weed control at 250 g/ha,[5]; [8],100%
same,pest or weed control at 62 g/ha,"[5]; pre-emergence, Preemergence, read-out: Plant response rating, Pigweed",90%
same,pest or weed control at 250 g/ha,"[5]; pre-emergence, Preemergence",95%
same,pest or weed control at 500 g/ha,[5]; [11],95%
same,pest or weed control at 62 g/ha,[6]; [16],0%
same,pest or weed control at 125 g/ha,[6]; [16],0%
same,pest or weed control at 250 g/ha,[6]; [8],0%
same,pest or weed control at 62 g/ha,[6]; [17],0%
same,pest or weed control at 125 g/ha,[6]; [17],0%
same,pest or weed control at 250 g/ha,"[6]; pre-emergence, Preemergence",0%
same,pest or weed control at 500 g/ha,[6]; [11],0%
same,pest or weed control at 31 g/ha,"[7]; post-emergence, Postemergence, 31 g ai/ha, read-out: Plant response rating (0 to 100), Foxtail, Giant",0%
same,pest or weed control at 62 g/ha,[7]; [18],0%
same,pest or weed control at 125 g/ha,[7]; [18],5%
same,pest or weed control at 250 g/ha,[7]; [8],5%
same,pest or weed control at 62 g/ha,[7]; [19],0%
same,pest or weed control at 125 g/ha,[7]; [19],0%
same,pest or weed control at 250 g/ha,"[7]; pre-emergence, Preemergence",0%
same,pest or weed control at 500 g/ha,[7]; [11],0%
